This passage reports Activity results from ChEMBL document CHEMBL1150580, “Microsphaerones A and B, two novel gamma-pyrone derivatives from the sponge-derived fungus Microsphaeropsis sp” (J Nat Prod, 2002).

The subject of data set [1] is Artemia salina. In words: Toxicity to Artemia salina. The data set is classed as organism-based. The following applies: in vivo.
In data set [2] the test system is Spodoptera littoralis. In words: Insecticidal activity against Spodoptera littoralis larvae. The data set is classed as functional, organism-based.

SMILES strings stand for the structures. The source made the active and inactive calls. No cut-off for these calls is given here.

For `C[C@@H](CC(=O)NC(=O)c1coc(/C=C/C=C/CCCCCCC(=O)O)cc1=O)C(=O)O` [MICROSPHAERONE A], in data set [1], the Activity result is listed as “Non-toxic”. In addition, the outcome in data set [2] was inactive.

Consider `NC(=O)c1coc(/C=C/C=C/CCCCCCC(=O)O)cc1=O` [MICROSPHAERONE B], for which the Activity result in data set [1] is on record as “Non-toxic”. For the same compound, in data set [2], the outcome was inactive.
